Assay results as given in US20240316093A1, “NEPHROTOXICITY REDUCING AGENT” (NIPPON SHINYAKU CO., LTD., priority 2021, published 2024).

Experiments:
[1] = Precipitation suppressing effect of trehalose, absorbance at 620 nm in the presence of ions assumed to be in urine (Example 7); assay type: physicochemical; conditions: Example 7, PMO Nos. 1, 2, 7, 8; aqueous solution of trehalose versus water for injection; KCl and NaCl, 37° C.
Description: Each of the antisense oligomers was dissolved in water for injection or an aqueous solution of trehalose, and the mixture was then mixed with an aqueous solution comprising potassium chloride and sodium chloride assumed to be in urine. The absorbance at 620 nm of the solution thus mixed was measured using a plate reader, Infinite F200 Pro (manufactured by Tecan Group Ltd.) under the heating condition of 37° C. […] Accordingly, conditions were set under which the precipitation was observed using water for injection as a medium for each sequence. Another measurement was performed under the same conditions as obtained except that only the medium was changed to an aqueous solution of trehalose, and then the absorbance obtained under both the conditions was compared to each other. When the absorbance was increased, precipitation was determined to be observed, and a time until the precipitation was observed and the increased value of the absorbance were evaluated. When the aqueous solution of trehalose was used as the medium, it was determined that the precipitation suppressing effect was presented in a case where the time until the precipitation was observed was longer or in a case where the increased value of the absorbance was smaller than the case of using the water for injection as the medium.

[2] = test system: C57BL/6J male mice; assay: BUN and Cre values in serum after tail-vein administration of PMO dosing solutions with or without sucrose or trehalose (Example 5); conditions: Example 5, PMO Nos. 1, 8 and 9 with sucrose or trehalose
Description: Also, the antisense oligomers of PMO Nos. 1, 8, and 9 were each dissolved in water for injection comprising 0.9% sodium chloride, and a solution obtained by dissolving trehalose (manufactured by FUJIFILM Wako Pure Chemical Corporation) with physiological saline was added thereto to prepare a dosing solution comprising each of the antisense oligomers and trehalose at the concentrations shown in Tables 15 to 17.
The obtained dosing solutions were administered into the tail vein of 6-week-old C57BL/6J male mice (N=2 to 3) at 20 mL/kg. Next day, serum was collected from the mice, and the blood urea nitrogen (BUN) values and blood creatinine (Cre) values were measured with the urease-GIDH method and the enzymatic method, respectively, using an automatic biochemical analyzer JCA-BM8060 (manufactured by JEOL Ltd.).

[3] = test system: C57BL/6J male mice; assay: BUN and Cre values in serum after tail-vein administration of PMO dosing solutions with or without sucrose (Example 2); conditions: Example 2, PMO Nos. 8 and 9 with sucrose
Description: (§1) The obtained dosing solutions were administered into the tail vein of 6-week-old C57BL/6J male mice (N=3) at 10 and 12 mL/kg. Next day, serum was collected from the mice, and the blood urea nitrogen (BUN) values and blood creatinine (Cre) values were measured with the urease-GIDH method and the enzymatic method, respectively, using an automatic biochemical analyzer JCA-BM8060 (manufactured by JEOL Ltd.). […] Sections obtained by slicing the samples were subjected to hematoxylin-eosin staining and a histopathological test of the sections was performed.

[4] = test system: kidney of C57BL/6J male mice; assay: Histopathological test of kidney (hematoxylin-eosin) after PMO No. 8 with or without sucrose (Example 2); conditions: Example 2, histopathological test, PMO No. 8 with sucrose
Description: as §1

[5] = test system: kidney of C57BL/6J male mice; conditions: mouse, in vivo
Description: The obtained dosing solutions were administered into the tail vein of 6-week-old C57BL/6J male mice (N=5) at 20 mL/kg. Next day, the mice were subjected to autopsy, and formalin-fixed paraffin-embedded samples of the respective kidneys were prepared. Sections obtained by slicing the samples were subjected to hematoxylin-eosin staining and a histopathological test of the sections was performed.

SMILES | Precipitation suppressing effect (time until the precipitation was observed, increase of the absorbance at 620 nm) [1] | Nephrotoxicity reducing effect (BUN values and Cre values versus dosing solution comprising neither sucrose nor trehalose) [2] | Nephrotoxicity reducing effect (BUN values and Cre values versus control dosing solution comprising no sucrose) [3] | Amount of precipitates (basophilic substances in the lumens of renal tubules) [4] | Nephrotoxicity reducing effect (toxicological findings on the histopathological test of the kidney) [5]
OC[C@H]1O[C@H](O[C@H]2O[C@H](CO)[C@@H](O)[C@H](O)[C@H]2O)[C@H](O)[C@@H](O)[C@@H]1O [trehalose] | suppress the precipitation of antisense oligomers | confirmed to reduce nephrotoxicity | – | – | –
OC[C@H]1O[C@@](CO)(O[C@H]2O[C@H](CO)[C@@H](O)[C@H](O)[C@H]2O)[C@@H](O)[C@@H]1O [sucrose] | – | confirmed to reduce nephrotoxicity | confirmed to reduce nephrotoxicity | amount of precipitates decreased according to the concentrations of sucrose | confirmed to reduce nephrotoxicity
